ChEMBL document CHEMBL4825723, “Synthesis of new methoxy derivatives of trans 2,3-diaryl-2,3-dihydrobenzofurans and evaluation of their anti-inflammatory activity” (Bioorg Med Chem Lett, 2021)
The source made the active and inactive calls. The rule behind the calls is not given here.

Columns and labels:
[1] = target: T1, Nuclear factor NF-kappa-B complex (Homo sapiens) (UniProt Q00653+P19838+Q04206); test: Inhibition of NF-kappaB in human U-937 cells assessed as reduction in translocation of p65 NF-kappaB in from cytosol to nucleus at 0.01 uM treated followed by 3 hrs LPS stimulation by Western blot analysis; format: cell-based
T1 sequence (P19838 whole entry, looked up): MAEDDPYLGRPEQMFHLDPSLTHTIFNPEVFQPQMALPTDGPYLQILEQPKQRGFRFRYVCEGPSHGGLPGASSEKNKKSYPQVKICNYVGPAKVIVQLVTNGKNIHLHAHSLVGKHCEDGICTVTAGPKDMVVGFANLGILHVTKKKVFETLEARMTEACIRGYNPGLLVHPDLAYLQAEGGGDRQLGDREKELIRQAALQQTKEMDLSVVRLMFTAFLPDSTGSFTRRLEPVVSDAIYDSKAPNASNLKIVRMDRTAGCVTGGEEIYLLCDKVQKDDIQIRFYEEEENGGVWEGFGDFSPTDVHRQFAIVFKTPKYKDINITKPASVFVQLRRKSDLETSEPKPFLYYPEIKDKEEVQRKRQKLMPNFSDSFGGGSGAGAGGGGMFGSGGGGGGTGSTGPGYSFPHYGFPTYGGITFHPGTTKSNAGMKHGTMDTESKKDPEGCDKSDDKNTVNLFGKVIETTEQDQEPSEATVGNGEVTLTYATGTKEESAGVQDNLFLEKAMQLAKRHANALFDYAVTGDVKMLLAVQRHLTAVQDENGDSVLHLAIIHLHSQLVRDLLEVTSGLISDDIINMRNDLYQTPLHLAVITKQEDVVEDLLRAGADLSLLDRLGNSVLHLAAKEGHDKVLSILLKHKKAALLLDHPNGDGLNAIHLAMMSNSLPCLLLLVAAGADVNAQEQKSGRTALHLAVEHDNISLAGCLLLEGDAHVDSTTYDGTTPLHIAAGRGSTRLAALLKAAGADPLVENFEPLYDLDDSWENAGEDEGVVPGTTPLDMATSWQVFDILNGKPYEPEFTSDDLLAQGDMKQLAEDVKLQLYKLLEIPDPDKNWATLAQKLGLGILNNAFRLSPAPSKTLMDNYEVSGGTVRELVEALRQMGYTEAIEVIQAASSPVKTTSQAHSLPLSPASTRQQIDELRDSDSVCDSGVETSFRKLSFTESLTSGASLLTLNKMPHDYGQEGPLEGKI
T1 sequence (Q00653 whole entry, looked up): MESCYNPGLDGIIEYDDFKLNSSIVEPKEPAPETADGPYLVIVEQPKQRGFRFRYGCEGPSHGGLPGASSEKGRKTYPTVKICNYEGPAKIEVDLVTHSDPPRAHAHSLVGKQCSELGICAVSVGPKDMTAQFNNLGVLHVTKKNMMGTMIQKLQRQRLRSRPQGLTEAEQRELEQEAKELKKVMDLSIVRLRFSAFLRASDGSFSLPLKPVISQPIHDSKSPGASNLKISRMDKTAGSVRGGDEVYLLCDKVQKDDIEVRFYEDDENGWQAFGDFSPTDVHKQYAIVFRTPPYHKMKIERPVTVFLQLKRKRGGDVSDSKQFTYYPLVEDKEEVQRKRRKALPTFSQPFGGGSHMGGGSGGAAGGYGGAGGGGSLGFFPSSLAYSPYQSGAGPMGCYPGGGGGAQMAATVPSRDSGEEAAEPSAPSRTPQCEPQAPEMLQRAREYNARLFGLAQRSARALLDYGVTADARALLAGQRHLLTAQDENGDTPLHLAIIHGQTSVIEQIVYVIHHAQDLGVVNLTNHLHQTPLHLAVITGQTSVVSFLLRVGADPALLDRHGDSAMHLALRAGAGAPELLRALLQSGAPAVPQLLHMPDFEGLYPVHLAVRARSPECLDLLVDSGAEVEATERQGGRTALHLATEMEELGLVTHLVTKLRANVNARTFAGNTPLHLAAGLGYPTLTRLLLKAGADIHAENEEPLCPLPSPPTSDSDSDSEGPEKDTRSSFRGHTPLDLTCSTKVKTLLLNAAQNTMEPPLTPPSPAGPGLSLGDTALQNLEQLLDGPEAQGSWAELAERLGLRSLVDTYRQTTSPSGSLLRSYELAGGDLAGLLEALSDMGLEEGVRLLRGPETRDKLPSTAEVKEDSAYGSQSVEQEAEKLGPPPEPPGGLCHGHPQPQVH
T1 sequence (Q04206 whole entry, looked up): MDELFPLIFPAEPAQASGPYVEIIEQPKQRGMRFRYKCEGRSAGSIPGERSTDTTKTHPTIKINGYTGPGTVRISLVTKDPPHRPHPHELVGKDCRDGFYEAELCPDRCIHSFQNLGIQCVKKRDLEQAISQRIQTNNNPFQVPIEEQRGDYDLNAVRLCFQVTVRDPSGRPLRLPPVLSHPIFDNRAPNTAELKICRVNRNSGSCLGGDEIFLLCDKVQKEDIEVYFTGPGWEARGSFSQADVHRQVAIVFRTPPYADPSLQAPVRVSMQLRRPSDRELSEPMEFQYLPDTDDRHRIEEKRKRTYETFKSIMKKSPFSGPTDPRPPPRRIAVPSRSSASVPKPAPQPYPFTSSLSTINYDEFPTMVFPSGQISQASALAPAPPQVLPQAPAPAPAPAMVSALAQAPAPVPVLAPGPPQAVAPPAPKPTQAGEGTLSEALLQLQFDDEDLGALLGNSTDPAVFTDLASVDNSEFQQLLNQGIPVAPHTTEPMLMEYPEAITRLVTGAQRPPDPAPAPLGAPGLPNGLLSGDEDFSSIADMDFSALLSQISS

[2] = target: T1, Nuclear factor NF-kappa-B complex (Homo sapiens); test: Inhibition of NF-kappaB in human U-937 cells assessed as reduction in translocation of p65 NF-kappaB in from cytosol to nucleus at 0.01 uM treated followed by 3 hrs LPS stimulation hrs by immunohistochemical staining/confocal microscopy; format: cell-based
[3] = tested on: U-937; test: Anti-inflammatory activity in human U-937 cells assessed as reduction in LPS-induced ROS production at 0.01 uM followed by LPS stimulation and measured after 24 hrs relative to control; format: functional, cell-based
[4] = tested on: U-937; test: Anti-inflammatory activity in human U-937 cells assessed as reduction in LPS-induced NO production at 0.01 uM followed by LPS stimulation and measured after 24 hrs relative to control; format: functional, cell-based
[5] = target: T1, Nuclear factor NF-kappa-B complex (Homo sapiens); test: Inhibition of NF-kappaB activation in human U-937 cells assessed as reduction in LPS-induced ACLY activity after 48 hrs; format: cell-based
[6] = target: T1, Nuclear factor NF-kappa-B complex (Homo sapiens); test: Inhibition of NF-kappaB activation in human U-937 cells assessed as reduction in LPS-induced PGE2 production after 48 hrs; format: cell-based
[7] = tested on: U-937; test: Cytotoxicity against human U-937 cells assessed as cell viability at 0.01 uM measured after 72 hrs; format: cell-based; conditions: u-937, 72 h
[8] = target: T1, Nuclear factor NF-kappa-B complex (Homo sapiens); test: Inhibition of NF-kappaB in human U-937 cells assessed as reduction in LPS-induced p65 expression at 0.01 uM treated followed by 3 hrs LPS stimulation by Western blot analysis; format: cell-based

Row | Compound | inhibition [1] | inhibition [2] | inhibition [5] | inhibition [6] | Inhibition of LPS-induced p65 expression [8] | inhibition ([5]; concentration not given here) | inhibition ([6]; concentration not given here) | Activity [3] | Activity [4] | Activity [7]
1 | COc1ccc2c(c1)[C@@H](c1ccccc1)[C@H](c1ccccc1)O2 [listing 1 of 2 here] | Active | Active | Active | Active | – | – | – | Active | Active | –
2 | COc1ccc2c(c1)C(c1cc(Br)cc(Br)c1)C(c1ccccc1)O2 (stereo not given) | – | – | – | – | – | – | – | – | – | Non-Toxic
3 | COC1(c2ccc(Br)cc2)c2ccccc2OC1c1ccccc1 (mixture of isomers) | – | – | – | – | Active | – | – | – | – | Toxic
4 | COc1ccc2c(c1)[C@@H](c1ccccc1)[C@H](c1ccccc1)O2 [listing 2 of 2 here] | – | – | – | – | – | – | – | – | – | Non-Toxic
5 | CO[C@@]1(c2ccccc2)c2ccccc2O[C@H]1c1ccccc1 | Active | Active | – | – | Active | – | – | Active | Active | Non-Toxic

Second part, led by results:

Row | inhibition [1] | inhibition [2] | inhibition [5] | inhibition [6] | Inhibition of LPS-induced p65 expression [8] | inhibition ([5]; concentration not given here) | inhibition ([6]; concentration not given here) | Compound | Activity [3] | Activity [4] | Activity [7]
6 | Active | Active | – | – | Active | – | – | COc1ccc2c(c1)[C@@H](c1ccc(Br)cc1)[C@@H](c1ccccc1)O2 | Active | Active | Non-Toxic
7 | Active | Active | – | – | Active | – | – | COc1ccc2c(c1)[C@@H](c1ccc(Br)cc1)[C@H](c1ccccc1)O2 | Active | Active | Non-Toxic
8 | Active | Active | – | – | Active | 43% | 28% | COc1ccc2c(c1)[C@@H](c1ccccc1)[C@H](c1ccccc1)O2 (mixture of isomers) | Active | Active | –
9 | Active | Active | – | Active | Active | 32% | – | COc1ccc2c(c1)C(c1ccccc1)C(c1ccccc1)O2 (racemic) | Active | Active | –
10 | Active | Active | – | – | Active | – | – | COc1ccc2c(c1)[C@@H](c1ccccc1)[C@H](c1ccccc1)O2 (single isomer, unassigned) | – | – | –
